# Data published in PubChem BioAssay AID1259411 (Chemical Carcinogenesis Research Information System (CCRIS), 2018).
# Calls of active or inactive are those of the source. No rule for the calls is given here.
# Tested on: rodent carcinogenicity bioassays, tumor incidence
# Assay: CCRIS carcinogenicity studies
# Conditions: Dose: 0, Dose: 0
# Outline: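 NCI-built, expert-reviewed records of carcinogenicity and related test outcomes (mutagenicity, tumor promotion/inhibition) compiled from published and report sources, historical span 1985-2011, not updated.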
structure (smiles),measurement,setting,value
CN(CCCC(=O)c1cccnc1)N=O,carcinogen call,"Species: HAMSTER, Strain/Sex: SYRIAN/FEMALE, Route: INTRATRACHEAL, 0.05, 5, 50 MG/KG ONCE ADMINISTERED TO MOTHERS ON DAY 15 OF GESTATION (STUDY DURATION: 59 WK), 0.05, 5, 50 MG/KG ONCE ADMINISTERED TO MOTHERS ON DAY 15 OF GESTATION (STUDY DURATION: 59 WK), Tumor Site: Type of Lesion: NASAL CAVITY: ADENOCARCINOMA, ADRENAL GLAND: TUMOR, PANCREAS: ADENOMA, Tumor Site: Type of Lesion: NASAL CAVITY: ADENOCARCINOMA, ADRENAL GLAND: TUMOR, PANCREAS: ADENOMA",active; positive
same,carcinogen call,"Species: HAMSTER, Strain/Sex: SYRIAN/FEMALE, Route: SUBCUTANEOUS, 1, 5, 10, 20 MG/KG ONCE ADMINISTERED TO MOTHERS ON DAY 15 OF GESTATION (STUDY DURATION: 59 WK), 1, 5, 10, 20 MG/KG ONCE ADMINISTERED TO MOTHERS ON DAY 15 OF GESTATION (STUDY DURATION: 59 WK), Tumor Site: Type of Lesion: NASAL CAVITY: ADENOCARCINOMA, ADRENAL GLAND: TUMOR",active; positive
same,carcinogen call,"Species: HAMSTER, Strain/Sex: SYRIAN/FEMALE, Route: TRANSPLACENTAL, 50 MG/KG IN DISTILLED WATER ADMINISTERED INTRATRACHEALLY TO MOTHERS ON DAY 15 OF GESTATION (STUDY DURATION: 48 WK), Tumor Site: Type of Lesion: ADRENAL GLAND: TUMOR, COLON: TUMOR, LYMPHOID TISSUE: LYMPHOMA, Tumor Site: Type of Lesion: ADRENAL GLAND: TUMOR, COLON: TUMOR, LYMPHOID TISSUE: LYMPHOMA",active; positive
same,carcinogen call,"Species: HAMSTER, Strain/Sex: SYRIAN/MALE, Route: INTRATRACHEAL, 0.05, 5, 50 MG/KG ONCE ADMINISTERED TO MOTHERS ON DAY 15 OF GESTATION (STUDY DURATION: 59 WK), 0.05, 5, 50 MG/KG ONCE ADMINISTERED TO MOTHERS ON DAY 15 OF GESTATION (STUDY DURATION: 59 WK), Tumor Site: Type of Lesion: NASAL CAVITY: ADENOCARCINOMA, ADRENAL GLAND: TUMOR",active; positive
same,carcinogen call,"Species: HAMSTER, Strain/Sex: SYRIAN/MALE, Route: SUBCUTANEOUS, 1, 5, 10, 20 MG/KG ONCE ADMINISTERED TO MOTHERS ON DAY 15 OF GESTATION (STUDY DURATION: 59 WK), 1, 5, 10, 20 MG/KG ONCE ADMINISTERED TO MOTHERS ON DAY 15 OF GESTATION (STUDY DURATION: 59 WK), Tumor Site: Type of Lesion: NASAL CAVITY: ADENOCARCINOMA, ADRENAL GLAND: TUMOR",active; positive
same,carcinogen call,"Species: HAMSTER, Strain/Sex: SYRIAN/MALE, Route: TRANSPLACENTAL, 50 MG/KG IN DISTILLED WATER ADMINISTERED INTRATRACHEALLY TO MOTHERS ON DAY 15 OF GESTATION (STUDY DURATION: 48 WK), Tumor Site: Type of Lesion: NASAL CAVITY: TUMOR",active; positive
same,carcinogen call,"Species: MOUSE, Strain/Sex: C3B6F1/FEMALE, Route: TRANSPLACENTAL, 100 MG/KG (0.5 MMOL) IN 0.9% STERILE SALINE ADMINISTERED INTRAPERITONEALLY ON DAYS 14, 16 AND 18 OF GESTATION (STUDY",inactive; negative
same,carcinogen call,"Species: MOUSE, Strain/Sex: C3B6F1/MALE, Route: TRANSPLACENTAL, 100 MG/KG (0.5 MMOL) IN 0.9% STERILE SALINE ADMINISTERED INTRAPERITONEALLY ON DAYS 14, 16 AND 18 OF GESTATION (STUDY, Tumor Site: Type of Lesion: LIVER: HEPATOCELLULAR ADENOMA OR CARCINOMA",active; positive
same,carcinogen call,"Species: MOUSE, Strain/Sex: C3H/HE/FEMALE, Route: INTRAPERITONEAL, 100 MG/KG (0.5 MMOL) IN 0.9% STERILE SALINE ONCE ON DAYS 14, 16 AND 18 OF PREGNANCY (STUDY DURATION: 24 WK), Tumor Site: Type of Lesion: LUNG: TUMOR",active; positive
same,carcinogen call,"Species: MOUSE, Strain/Sex: STRAIN-A/FEMALE, Route: GAVAGE, 1, 2, 3 UMOL IN 0.1 ML COTTONSEED OIL 1/WK FOR 8 WK (STUDY DURATION: 26 WK), 1, 2, 3 UMOL IN 0.1 ML COTTONSEED OIL 1/WK FOR 8 WK (STUDY DURATION: 26 WK), Tumor Site: Type of Lesion: LUNG: ADENOMA",active; positive
same,carcinogen call,"Species: MOUSE, Strain/Sex: STRAIN-A/FEMALE, Route: INTRAPERITONEAL, 1, 2, 3 UMOL IN 0.1 ML COTTONSEED OIL 1/WK FOR 8 WK (STUDY DURATION: 26 WK), 1, 2, 3 UMOL IN 0.1 ML COTTONSEED OIL 1/WK FOR 8 WK (STUDY DURATION: 26 WK), Tumor Site: Type of Lesion: LUNG: ADENOMA",active; positive
same,carcinogen call,"Species: MOUSE, Strain/Sex: STRAIN-A/FEMALE, Route: INTRAPERITONEAL, 5, 20 UMOL TOTAL DOSE ADMINISTERED IN SUBDOSES 3/WK FOR 7 WK (STUDY DURATION: 37 WK), 5, 20 UMOL TOTAL DOSE ADMINISTERED IN SUBDOSES 3/WK FOR 7 WK (STUDY DURATION: 37 WK), Tumor Site: Type of Lesion: LUNG: TUMOR",active; positive
same,carcinogen call,"Species: MOUSE, Strain/Sex: STRAIN-A/FEMALE, Route: INTRAPERITONEAL, 20 UMOL MOUSE (TOTAL DOSE) ADMINISTERED IN 0.1 ML SALINE 3/WK (TOTAL 20 INJECTIONS) (STUDY DURATION: 37 WK), Tumor Site: Type of Lesion: LUNG: ADENOCARCINOMA, ADENOMA",active; positive
same,carcinogen call,"Species: MOUSE, Strain/Sex: STRAIN-A/FEMALE, Route: TRANSPLACENTAL, 100 MG/KG (0.5 MMOL) IN 0.9% STERILE SALINE ADMINISTERED INTRAPERITONEALLY ON DAYS 14, 16 AND 18 OF GESTATION (STUDY, Tumor Site: Type of Lesion: LUNG: TUMOR",active; positive
same,carcinogen call,"Species: MOUSE, Strain/Sex: STRAIN-A/MALE, Route: TRANSPLACENTAL, 100 MG/KG (0.5 MMOL) IN 0.9% STERILE SALINE ADMINISTERED INTRAPERITONEALLY ON DAYS 14, 16 AND 18 OF GESTATION (STUDY",inactive; negative
same,carcinogen call,"Species: MOUSE, Strain/Sex: SWISS/FEMALE, Route: INTRAPERITONEAL, 50 MG/KG IN STERILE SALINE ADMINISTERED ON POSTNATAL D 1, 3, 5, 7 AND 10 (STUDY DURATION: 15 MO), Tumor Site: Type of Lesion: LIVER: HEPATOCELLULAR ADENOMA OR CARCINOMA, LUNG: TUMOR",active; positive
same,carcinogen call,"Species: MOUSE, Strain/Sex: SWISS/FEMALE, Route: TRANSPLACENTAL, 100 MG/KG (0.5 MMOL) IN 0.9% STERILE SALINE ADMINISTERED INTRAPERITONEALLY ON DAYS 15, 17 AND 19 OF GESTATION (STUDY",inactive; negative
same,carcinogen call,"Species: MOUSE, Strain/Sex: SWISS/MALE, Route: INTRAPERITONEAL, 50 MG/KG IN STERILE SALINE ADMINISTERED ON POSTNATAL D 1, 3, 5, 7 AND 10 (STUDY DURATION: 15 MO), Tumor Site: Type of Lesion: LIVER: HEPATOCELLULAR ADENOMA OR CARCINOMA, LUNG: TUMOR",active; positive
same,carcinogen call,"Species: MOUSE, Strain/Sex: SWISS/MALE, Route: TRANSPLACENTAL, 100 MG/KG (0.5 MMOL) IN 0.9% STERILE SALINE ADMINISTERED INTRAPERITONEALLY ON DAYS 15, 17 AND 19 OF GESTATION (STUDY",inactive; negative
same,carcinogen call,"Species: RAT, Strain/Sex: F344/FEMALE, Route: GAVAGE, 11 MG/WK FOR A TOTAL DOSE OF 1.3 MMOL (STUDY DYRATION: 50 WK), Tumor Site: Type of Lesion: LIVER: TUMOR, LUNG: TUMOR, NASAL MUCOSA: TUMOR, Tumor Site: Type of Lesion: LIVER: TUMOR, LUNG: TUMOR, NASAL MUCOSA: TUMOR",active; positive
same,carcinogen call,"Species: RAT, Strain/Sex: F344/FEMALE, Route: INTRAVESICULAR, 5.5 MG IN 0.2 ML ETHANOL: DEIONIZED WATER (1:3) 2/WK FOR 30 WK (TOTAL DOSE 1.5 MMOL) (STUDY DURATION: LIFESPAN), Tumor Site: Type of Lesion: LUNG: TUMOR, LIVER: TUMOR",active; positive
same,carcinogen call,"Species: RAT, Strain/Sex: F344/FEMALE, Route: SUBCUTANEOUS, 1, 3, 9 MMOL/KG BW (TOTAL DOSE) WITH SUBDOSES GIVEN 3/WK FOR 20 WK WITH A 2 WK INTERRUPTION AFTER 7 WK (STUDY DURATIO, 1, 3, 9 MMOL/KG BW (TOTAL DOSE) WITH SUBDOSES GIVEN 3/WK FOR 20 WK WITH A 2 WK INTERRUPTION AFTER 7 WK (STUDY DURATIO, Tumor Site: Type of Lesion: NASAL CAVITY: TUMORS, LUNG: TUMORS, LIVER: TUMORS, Tumor Site: Type of Lesion: NASAL CAVITY: TUMORS, LUNG: TUMORS, LIVER: TUMORS",active; positive
same,carcinogen call,"Species: RAT, Strain/Sex: F344/MALE, Route: MUCOUS MEMBRANE, 0.3 ML OF A 15 MMOL WATER SOLUTION 1/D 3 D/WK FOR 1 WK THEN 1/D 5 D/WK FOR WK 2-4 THEN 2/D 5 D/WK FOR WK 5-61 (STUDY, Tumor Site: Type of Lesion: LUNG: ADENOSQUAMOUS CARCINOMA, ADENOCARCINOMA, ADENOMA, NASAL CAVITY: CARCINOMA, PAPILLOMA, ADENOMA, ORAL CAVITY: PAPILL, Tumor Site: Type of Lesion: LUNG: ADENOSQUAMOUS CARCINOMA, ADENOCARCINOMA, ADENOMA, NASAL CAVITY: CARCINOMA, PAPILLOMA, ADENOMA, ORAL CAVITY: PAPILL",active; positive
same,carcinogen call,"Species: RAT, Strain/Sex: F344/MALE, Route: ORAL, 0.5, 1, 5 PPM IN DRINKING WATER FOR DURATION OF STUDY (TOTAL DOSE: 0; 0.073; 0.17; 0.68 MMOL/KG) (STUDY DURATION: 128, 0.5, 1, 5 PPM IN DRINKING WATER FOR DURATION OF STUDY (TOTAL DOSE: 0; 0.073; 0.17; 0.68 MMOL/KG) (STUDY DURATION: 128, Tumor Site: Type of Lesion: NASAL CAVITY: TUMOR, LIVER: ADENOMA, HEPATOMA, LUNG: ADENOMA, ADENOCARCINOMA, ADENOSQUAMOUS CARCINOMA, SQUAMOUS CELL CAR, Tumor Site: Type of Lesion: NASAL CAVITY: TUMOR, LIVER: ADENOMA, HEPATOMA, LUNG: ADENOMA, ADENOCARCINOMA, ADENOSQUAMOUS CARCINOMA, SQUAMOUS CELL CAR",active; positive
same,carcinogen call,"Species: RAT, Strain/Sex: F344/MALE, Route: SUBCUTANEOUS, 1, 3, 9 MMOL/KG BW (TOTAL DOSE) WITH SUBDOSES GIVEN 3/WK FOR 20 WK WITH A 2 WK INTERRUPTION AFTER 7 WK (STUDY DURATIO, 1, 3, 9 MMOL/KG BW (TOTAL DOSE) WITH SUBDOSES GIVEN 3/WK FOR 20 WK WITH A 2 WK INTERRUPTION AFTER 7 WK (STUDY DURATIO, Tumor Site: Type of Lesion: NASAL CAVITY: TUMORS, LUNG: TUMORS, LIVER: TUMORS, Tumor Site: Type of Lesion: NASAL CAVITY: TUMORS, LUNG: TUMORS, LIVER: TUMORS",active; positive
